Measurements reported in ChEMBL document CHEMBL1136685, “Structure-activity relationship of cyclic peptide penta-c[Asp-His(6)-DPhe(7)-Arg(8)-Trp(9)-Lys]-NH(2) at the human melanocortin-1 and -4 receptors: His(6) substitution” (Bioorg Med Chem Lett, 2003).

Columns and labels:
[1] = target: T1, Melanocyte-stimulating hormone receptor (Homo sapiens, UniProt Q01726); assay: Agonist activity at human melanocortin receptor (hMC1R).; format: functional
Target sequence in this assay (Q01726 whole entry): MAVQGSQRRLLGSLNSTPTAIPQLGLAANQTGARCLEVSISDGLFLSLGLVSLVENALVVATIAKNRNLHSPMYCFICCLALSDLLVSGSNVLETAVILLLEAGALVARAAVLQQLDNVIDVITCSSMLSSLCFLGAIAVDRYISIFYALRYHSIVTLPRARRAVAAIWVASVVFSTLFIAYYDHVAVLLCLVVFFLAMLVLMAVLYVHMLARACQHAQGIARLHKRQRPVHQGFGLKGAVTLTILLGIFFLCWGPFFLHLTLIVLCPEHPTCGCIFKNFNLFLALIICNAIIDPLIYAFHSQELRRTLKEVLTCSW

Melanocortin receptor 5 = Melanocortin receptor 5 (Homo sapiens, UniProt P33032); assay: Agonistic activity against human melanocortin receptor (hMC5R) for cAMP accumulation; format: functional
Sequence of Melanocortin receptor 5 (P33032 whole entry): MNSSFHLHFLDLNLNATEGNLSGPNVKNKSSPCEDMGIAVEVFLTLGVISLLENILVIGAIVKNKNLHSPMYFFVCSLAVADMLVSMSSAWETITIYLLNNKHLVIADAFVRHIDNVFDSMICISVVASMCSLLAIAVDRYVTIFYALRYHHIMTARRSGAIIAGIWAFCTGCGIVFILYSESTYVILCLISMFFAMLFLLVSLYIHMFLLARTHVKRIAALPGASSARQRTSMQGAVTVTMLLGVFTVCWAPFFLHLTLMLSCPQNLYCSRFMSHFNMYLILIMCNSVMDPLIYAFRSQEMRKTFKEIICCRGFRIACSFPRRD

Melanocortin receptor 3 = Melanocortin receptor 3 (Homo sapiens, UniProt P41968); assay: Agonistic activity against human melanocortin receptor (hMC3R) for cAMP accumulation; format: functional
Sequence of Melanocortin receptor 3 (P41968 whole entry): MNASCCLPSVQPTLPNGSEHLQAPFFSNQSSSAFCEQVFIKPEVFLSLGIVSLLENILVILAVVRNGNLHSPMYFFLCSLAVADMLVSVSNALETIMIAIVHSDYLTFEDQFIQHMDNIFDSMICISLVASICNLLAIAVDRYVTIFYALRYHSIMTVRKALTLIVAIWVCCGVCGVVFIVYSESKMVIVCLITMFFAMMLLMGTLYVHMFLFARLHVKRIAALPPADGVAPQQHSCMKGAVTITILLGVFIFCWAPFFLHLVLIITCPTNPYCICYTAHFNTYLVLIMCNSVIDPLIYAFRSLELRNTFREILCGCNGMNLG

Melanocortin receptor 4 [2] = target: T2, Melanocortin receptor 4 (Homo sapiens, UniProt P32245); assay: Agonist activity at human melanocortin receptor (hMC4R).; format: functional
T2 sequence (P32245 whole entry): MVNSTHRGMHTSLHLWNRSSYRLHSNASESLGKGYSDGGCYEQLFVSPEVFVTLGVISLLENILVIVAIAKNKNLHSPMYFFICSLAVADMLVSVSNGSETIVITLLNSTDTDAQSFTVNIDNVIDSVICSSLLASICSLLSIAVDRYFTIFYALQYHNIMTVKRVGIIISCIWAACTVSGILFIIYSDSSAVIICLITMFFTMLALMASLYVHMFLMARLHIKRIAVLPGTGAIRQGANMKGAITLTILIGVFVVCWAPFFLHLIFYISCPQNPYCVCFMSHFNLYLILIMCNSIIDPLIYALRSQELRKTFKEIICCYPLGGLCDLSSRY

Melanocortin receptor 4 [3] = assay: (§1) Agonistic activity against human melanocortin receptor (hMC1R) for cAMP accumulation; format: functional
[4] = target: T1, Melanocyte-stimulating hormone receptor; assay: as §1; format: functional
Target sequence in this assay (Q01726 whole entry, looked up): as the sequence (Q01726 whole entry) above

[5] = target: T1, Melanocyte-stimulating hormone receptor; assay: Binding affinity towards human melanocortin receptor (hMC1R) using NDP-MSH as radioligand
Target sequence in this assay (Q01726 whole entry): as above

Melanocortin receptor 4 [6] = target: T2, Melanocortin receptor 4; assay: Binding affinity towards human melanocortin receptor (hMC4R) using NDP-MSH as radioligand
Melanocortin receptor 4 [7] = target: T2, Melanocortin receptor 4; assay: Agonistic activity against human melanocortin receptor (hMC4R) for cAMP accumulation; format: functional

Row | Compound | EC50 (Melanocortin receptor 4 [2]) [nM] | IC50 [5] [µM] | IC50 (Melanocortin receptor 4 [6]) [nM] | EC50 (Melanocortin receptor 4 [7]) [nM] | other results
1 | CCCCC(=O)N[C@H]1CC(=O)NCCCC[C@@H](C(N)=O)NC(=O)[C@H](Cc2c[nH]c3ccccc23)NC(=O)[C@H](CCCNC(=N)N)NC(=O)[C@@H](Cc2ccccc2)NC(=O)[C@H](Cc2cnc[nH]2)NC1=O | 0.9 | – | – | – | EC50 [1]: 0.4 nM; EC50 (Melanocortin receptor 5): 33 nM; EC50 (Melanocortin receptor 3): 6 nM
2 | CCCCC(=O)N[C@H]1CC(=O)NCCCC[C@@H](C(N)=O)NC(=O)[C@H](Cc2c[nH]c3ccccc23)NC(=O)[C@H](CCCNC(=N)N)NC(=O)[C@@H](Cc2ccccc2)NC(=O)[C@H](Cc2ccc(-c3ccccc3)cc2)NC1=O | 6 | – | – | – | EC50 (Melanocortin receptor 4 [3]): 53 nM
3 | CCCCC(=O)N[C@H]1CC(=O)NCCCC[C@@H](C(N)=O)NC(=O)[C@H](Cc2c[nH]c3ccccc23)NC(=O)[C@H](CCCN=C(N)N)NC(=O)[C@@H](Cc2ccccc2)NC(=O)[C@@H]2c3ccccc3CN2C1=O (single isomer, unassigned; form 1) | 118 | – | – | – | EC50 [4]: 56 nM
4 | CCCCC(=O)N[C@H]1CC(=O)NCCCC[C@@H](C(N)=O)NC(=O)[C@H](Cc2c[nH]c3ccccc23)NC(=O)[C@H](CCCNC(N)=O)NC(=O)[C@@H](Cc2ccccc2)NC(=O)C2(CCc3c(Cl)cccc3C2)NC1=O (single isomer, unassigned; form 1) | – | 13.1 | 410 | 48 | –
5 | CCCCC(=O)N[C@H]1CC(=O)NCCCC[C@@H](C(N)=O)NC(=O)[C@H](Cc2c[nH]c3ccccc23)NC(=O)[C@H](CCCNC(N)=O)NC(=O)[C@@H](Cc2ccccc2)NC(=O)C2(CCc3c(Cl)cccc3C2)NC1=O (single isomer, unassigned; form 2) | – | 14.8 | 675 | 105 | –
